Results: patent US11274115B2, “Imidazoquinoline derivatives and their use in therapy” (GLAXOSMITHKLINE BIOLOGICALS SA, priority 2016, dated 2022)
Where two headings read alike, the source gives them in different places.

Tests used:
[1] = target: T1, human TLR7 (Homo sapiens, UniProt Q9NYK1); experiment: hTLR7 agonist reporter assay in HEK293 cells (NFκB-SEAP); type: cell-based; conditions: for EC50: read-out: hTLR7 ED50; for hTLR7/8 ratio: hTLR7 ED50 over hTLR8 ED50
T1 construct: host or cells: HEK293
T1 sequence (Q9NYK1 27-1049): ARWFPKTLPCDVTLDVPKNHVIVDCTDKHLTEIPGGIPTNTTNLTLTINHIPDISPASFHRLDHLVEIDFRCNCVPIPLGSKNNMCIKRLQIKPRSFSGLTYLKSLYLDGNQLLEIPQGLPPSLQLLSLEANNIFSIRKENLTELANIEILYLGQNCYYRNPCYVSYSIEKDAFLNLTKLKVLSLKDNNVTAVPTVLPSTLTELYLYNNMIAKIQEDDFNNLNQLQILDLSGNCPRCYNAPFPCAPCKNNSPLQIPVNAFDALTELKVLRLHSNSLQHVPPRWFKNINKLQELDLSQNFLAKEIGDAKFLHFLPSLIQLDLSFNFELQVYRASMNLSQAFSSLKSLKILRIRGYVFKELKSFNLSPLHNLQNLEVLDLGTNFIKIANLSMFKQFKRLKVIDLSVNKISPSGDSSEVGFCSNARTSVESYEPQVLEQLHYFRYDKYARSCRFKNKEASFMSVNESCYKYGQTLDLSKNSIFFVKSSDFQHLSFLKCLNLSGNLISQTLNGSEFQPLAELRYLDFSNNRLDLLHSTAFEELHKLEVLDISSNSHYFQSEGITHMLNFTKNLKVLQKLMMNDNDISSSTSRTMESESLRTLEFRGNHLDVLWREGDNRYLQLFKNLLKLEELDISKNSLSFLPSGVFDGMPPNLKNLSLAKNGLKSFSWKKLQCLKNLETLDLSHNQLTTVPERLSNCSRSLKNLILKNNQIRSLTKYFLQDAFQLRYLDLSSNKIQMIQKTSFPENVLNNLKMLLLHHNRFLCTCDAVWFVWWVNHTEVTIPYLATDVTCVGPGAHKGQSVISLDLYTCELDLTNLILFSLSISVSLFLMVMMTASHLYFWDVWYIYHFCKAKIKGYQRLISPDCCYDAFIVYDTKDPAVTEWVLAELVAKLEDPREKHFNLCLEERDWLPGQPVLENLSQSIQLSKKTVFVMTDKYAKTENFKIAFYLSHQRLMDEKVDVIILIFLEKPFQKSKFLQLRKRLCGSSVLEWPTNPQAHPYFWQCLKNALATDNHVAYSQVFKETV
Method: Assay for hTLR7 and hTLR8 Agonist Activity in HEK-293 Cells
Determination of TLR agonist activity was performed using the HEK293 […]. This assay measures TLR7 and TLR8 selectivity and potency of the compounds tested. HEK293 cells expressing human TLR7 or TLR8 and NFκB responsive Secreted Embryonic Alkaline Phosphatase (SEAP) reporter gene were obtained from InvivoGen (San Diego, Calif.). These cells were maintained in culture media of Dulbecco's Modified Eagle Medium (DMEM) (Invitrogen, Grand Island, N.Y.), 10% Fetal Bovine Serum (FBS) (Sigma, St. Louis, Mo.) and selection antibiotics (Invitrogen, and Invivogen). HEK293 stably transfected with human TLR7 (hTLR7) or human TLR8 (hTLR8) were stimulated for 24 h with aqueous formulations of test compounds and culture supernatants were analyzed for NFκB activation using the colorimetric SEAP detection kit QuantBlue (InvivoGen).

[2] = system: human peripheral blood mononuclear cells (hPBMCs); experiment: TNF-α induction in hPBMCs; type: cell-based; conditions: 24 h
Method: Assays to Measure Cytokine Induction
Test compounds were evaluated for cytokine induction in human peripheral blood mononuclear cells (hPBMCs).
Primary human PBMCs were isolated from fresh blood from healthy donors via Ficoll gradient separation and plated at 0.5×10^6 cells/well in 96-well tissue culture plates (RPMI-1640 plus 10% FBS). hPBMCs were maintained with RPMI-1640 culture media (Invitrogen, Grand Island, N.Y.), antibiotics (Invitrogen) and 10% FBS (Sigma).
Incubation and Assays for IFN-γ, IFN-α and TNF-α
hPBMCs were stimulated for 24 h with aqueous formulations of test compounds. Culture supernatants were analyzed for TNF-α and IFN-γ induction using multiplex kits (FluoroKine multiplex kits from R&D Systems, Minneapolis, Minn.) and for IFN-α induction using human IFN-α VeriKine ELISA kit (Pestka Biomedical Laboratories, Inc., Piscataway, N.J.).

- selectivity hTLR8/hTLR7, in words ([1]; Table 1): notable selectivity for hTLR8/hTLR7
- EC50 ([1]; Table 1, FIG. 1, 24 h stimulation, aqueous formulations): 1.06 µM
- hTLR7/8 ratio ([1]; Table 1): 11.0
- EC50 ([1]; Table 2, FIG. 3, another occasion, * = only very low levels of NFKB activation were detected): 7 µM
- hTLR7/8 ratio ([1]; Table 2): 8.9
- hTLR7 agonist activity, in words ([1]; Table 3, FIG. 5): agonist of both TLR7 and TLR8
- EC50 ([1]; Table 3, FIG. 5, another occasion, * = only very low levels of NFKB activation were detected): 4.1 µM
- hTLR7/8 ratio ([1]; Table 3): 6.9
- EC50 ([1]; Table 4, FIG. 7, another occasion): 7 µM
- hTLR7/8 ratio ([1]; Table 4): 9.9
SMILES: CCCCCCCC/C=C\CCCCCCCC(=O)OC[C@H](COP(=O)(O)OCCOc1ccc2c(c1)nc(N)c1nc(CCCC)n(CCO)c12)OC(=O)CCCCCCC/C=C\CCCCCCCC [Example 1]
- hTLR7 agonist activity, in words ([1]; text on Table 1, FIG. 1): significantly more potent as an agonist of hTLR7 and hTLR8 than Comparative Example 2
- hTLR7 agonist activity, in words ([1]; text on Table 2, FIG. 3): more active than Comparative Example 2 as an agonist of hTLR7 and hTLR8
- TNF-α induction, in words ([2]; FIG. 13): potent at inducing TNF-α
- TNF-α induction, in words ([2]; FIG. 15, another occasion): effective at inducing TNF-α
